Results from patent US11649255B2, “Indazoles as hematopoietic progenitor kinase 1 (HPK1) inhibitors and methods using same” (1st Biotherapeutics, Inc., priority 2020, dated 2023).
pIC50: −log10 of the molar value.

Target: recombinant human HPK1 (Homo sapiens (Human), UniProt Q92918)
Test: HPK1 kinase assay (ADP-Glo)
Format: biochemical
Conditions: 25 μM ATP, MBP substrate
Method in brief: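 Activity was read as ADP formed, detected by ADP-Glo luminescence after the reaction of 5 ng recombinant human HPK1 with MBP and ATP (stocks 0.5 μg/μl and 25 μM) for 40 min at 30 °C. Buffer was Tris pH 7.5 with MgCl2, BSA and DTT, with compound in 0.5% DMSO. IC50 came from inhibition curves.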

Chain of recombinant human HPK1 (Q92918 whole entry): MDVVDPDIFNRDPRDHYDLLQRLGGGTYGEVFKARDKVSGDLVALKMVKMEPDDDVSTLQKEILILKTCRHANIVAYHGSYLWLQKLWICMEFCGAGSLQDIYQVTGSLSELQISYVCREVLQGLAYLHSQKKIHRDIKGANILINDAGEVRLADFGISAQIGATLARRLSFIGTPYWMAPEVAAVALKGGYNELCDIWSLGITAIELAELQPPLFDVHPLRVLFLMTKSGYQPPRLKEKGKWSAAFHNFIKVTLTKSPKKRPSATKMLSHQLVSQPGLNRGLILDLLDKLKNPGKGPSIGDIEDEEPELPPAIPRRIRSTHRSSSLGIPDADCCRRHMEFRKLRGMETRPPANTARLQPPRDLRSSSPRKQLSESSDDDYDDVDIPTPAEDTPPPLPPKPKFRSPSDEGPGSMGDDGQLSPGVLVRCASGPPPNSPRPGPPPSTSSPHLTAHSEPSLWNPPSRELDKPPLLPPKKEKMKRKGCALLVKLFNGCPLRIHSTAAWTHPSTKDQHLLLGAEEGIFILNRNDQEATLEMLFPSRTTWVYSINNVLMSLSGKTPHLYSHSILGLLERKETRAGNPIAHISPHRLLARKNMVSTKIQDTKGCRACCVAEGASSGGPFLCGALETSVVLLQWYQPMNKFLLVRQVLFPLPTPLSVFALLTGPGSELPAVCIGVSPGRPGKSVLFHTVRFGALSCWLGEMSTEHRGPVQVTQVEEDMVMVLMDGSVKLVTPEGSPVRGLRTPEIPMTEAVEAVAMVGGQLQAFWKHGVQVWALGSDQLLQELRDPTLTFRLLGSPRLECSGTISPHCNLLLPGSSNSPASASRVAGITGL

pIC50, < 6.00:
NC(=O)c1c(F)c(Cl)c(-c2ccn3nc(NC(=O)[C@@H]4C[C@@H]4F)cc3c2)c2cn[nH]c12 [Example 576, 5-chloro-6-fluoro-4-(2-((1S,2S)-2-fluorocyclopropane-1-carboxamido)pyrazolo[1,5-a]pyridin-5-yl)-1H-indazole-7-carboxamide]
O=C(Nc1nc2ccc(-c3cc(-c4cccs4)cc4[nH]ncc34)cc2s1)C1CC1 [Example 22, N-(6-(6-(thiophen-2-yl)-1H-indazol-4-yl)benzo[d]thiazol-2-yl)cyclopropanecarboxamide]
CN(C)c1c(F)cc(-c2ccc3nc(NC(=O)[C@@H]4C[C@@H]4F)sc3n2)c2cn[nH]c12 [Example 214, (1S,2S)-N-(5-(7-(dimethylamino)-6-fluoro-1H-indazol-4-yl)thiazolo[5,4-b]pyridin-2-yl)-2-fluorocyclopropane-1-carboxamide]

pIC50, 6.30 to 7.00:
CSc1n[nH]c2cc(F)c(C)c(-c3ccn4nc(NC(=O)[C@@H]5C[C@@H]5F)cc4c3)c12 [Example 471, (1S,2S)-2-fluoro-N-(5-(6-fluoro-5-methyl-3-(methylthio)-1H-indazol-4-yl)pyrazolo[1,5-a]pyridin-2-yl)cyclopropane-1-carboxamide]
Cc1ccc2[nH]ncc2c1-c1ccc2nc(NC(=O)[C@@H]3C[C@@H]3F)sc2c1 [Example 2, (1S,2S)-2-fluoro-N-(6-(5-methyl-1H-indazol-4-yl)benzo[d]thiazol-2-yl)cyclopropane-1-carboxamide]
COc1ccc2[nH]ncc2c1-c1ccc2nc(NC(=O)C3CC3)sc2c1 [Example 24, N-(6-(5-methoxy-1H-indazol-4-yl)benzo[d]thiazol-2-yl)cyclopropanecarboxamide]
O=C(Nc1nc2ccc(-c3c(Cl)c(F)c(N4CCC(O)C4)c4[nH]ncc34)cc2s1)[C@@H]1C[C@@H]1F (stereo partly drawn) [Example 78, (1S,2S)-N-(6-(5-chloro-6-fluoro-7-(3-hydroxypyrrolidin-1-yl)-1H-indazol-4-yl)benzo[d]thiazol-2-yl)-2-fluorocyclopropane-1-carboxamide]

pIC50, > 7.00:
NC1CCCN(c2c(F)c(Cl)c(-c3ccc4nc(NC(=O)[C@@H]5C[C@@H]5F)sc4c3)c3cn[nH]c23)C1 (stereo partly drawn) [Example 84, (1S,2S)-N-(6-(7-(3-aminopiperidin-1-yl)-5-chloro-6-fluoro-1H-indazol-4-yl)benzo[d]thiazol-2-yl)-2-fluorocyclopropane-1-carboxamide]
CCC(C)Nc1c(F)c(Cl)c(-c2ccc3nc(NC(=O)[C@@H]4C[C@@H]4F)cn3c2)c2cn[nH]c12 (stereo partly drawn) [Example 370, (1S,2S)-N-(6-(7-(sec-butylamino)-5-chloro-6-fluoro-1H-indazol-4-yl)imidazo[1,2-a]pyridin-2-yl)-2-fluorocyclopropane-1-carboxamide]
CNNc1c(F)c(Cl)c(-c2ccc3nc(NC(=O)[C@@H]4C[C@@H]4F)sc3n2)c2cn[nH]c12 [Example 191, (1S,2S)-N-(5-(5-chloro-6-fluoro-7-(2-methylhydrazineyl)-1H-indazol-4-yl)thiazolo[5,4-b]pyridin-2-yl)-2-fluorocyclopropane-1-carboxamide]
CN(c1c(F)c(Cl)c(-c2ccn3nc(NC(=O)[C@@H]4C[C@@H]4F)cc3c2)c2cn[nH]c12)C1CC1 [Example 625, (1S,2S)-N-(5-(5-chloro-7-(cyclopropyl(methyl)amino)-6-fluoro-1H-indazol-4-yl)pyrazolo[1,5-a]pyridin-2-yl)-2-fluorocyclopropane-1-carboxamide]
CSc1c(F)c(Cl)c(-c2ccn3nc(NC(=O)O[C@@H]4COC[C@H]4C)cc3c2)c2cn[nH]c12 [Example 645, (3S,4R)-4-methyltetrahydrofuran-3-yl (5-(5-chloro-6-fluoro-7-(methylthio)-1H-indazol-4-yl)pyrazolo[1,5-a]pyridin-2-yl)carbamate]
CN(C)C(=O)CN(C)c1c(F)c(Cl)c(-c2ccc3nc(NC(=O)[C@@H]4C[C@@H]4F)sc3c2)c2cn[nH]c12 [Example 100, (1S,2S)-N-(6-(5-chloro-7-((2-(dimethylamino)-2-oxoethyl)(methyl)amino)-6-fluoro-1H-indazol-4-yl)benzo[d]thiazol-2-yl)-2-fluorocyclopropane-1-carboxamide]
O=C(Nc1cn2cc(-c3c(Cl)c(F)c(C4CCCC4)c4[nH]ncc34)ccc2n1)[C@@H]1C[C@@H]1F [Example 406, (1S,2S)-N-(6-(5-chloro-7-cyclopentyl-6-fluoro-1H-indazol-4-yl)imidazo[1,2-a]pyridin-2-yl)-2-fluorocyclopropane-1-carboxamide]
CCc1c(F)c(SC)c2[nH]ncc2c1-c1ccc2nc(NC(=O)[C@@H]3C[C@@H]3F)sc2c1 [Example 103, (1S,2S)-N-(6-(5-ethyl-6-fluoro-7-(methylthio)-1H-indazol-4-yl)benzo[d]thiazol-2-yl)-2-fluorocyclopropane-1-carboxamide]
CC(C)c1c(F)c(Cl)c(-c2ccc3nc(NC(=O)[C@@H]4C[C@@H]4F)cn3c2)c2cn[nH]c12 [Example 405, (1S,2S)-N-(6-(5-chloro-6-fluoro-7-isopropyl-1H-indazol-4-yl)imidazo[1,2-a]pyridin-2-yl)-2-fluorocyclopropane-1-carboxamide]
C=Cc1cc(C)c(-c2ccc3nc(NC(=O)[C@@H]4C[C@@H]4F)cn3c2)c2cn[nH]c12 [Example 264, (1S,2S)-2-fluoro-N-(6-(5-methyl-7-vinyl-1H-indazol-4-yl)imidazo[1,2-a]pyridin-2-yl)cyclopropane-1-carboxamide]
CNc1c(F)c(Cl)c(-c2ccn3nc(NC(=O)[C@@H]4C[C@@H]4F)cc3c2)c2cn[nH]c12 [Example 494, (1S,2S)-N-(5-(5-chloro-6-fluoro-7-(methylamino)-1H-indazol-4-yl)pyrazolo[1,5-a]pyridin-2-yl)-2-fluorocyclopropane-1-carboxamide]
CSc1ccc2[nH]ncc2c1-c1ccn2nc(NC(=O)[C@@H]3C[C@@H]3F)cc2c1 [Example 463, (1S,2S)-2-fluoro-N-(5-(5-(methylthio)-1H-indazol-4-yl)pyrazolo[1,5-a]pyridin-2-yl)cyclopropane-1-carboxamide]
Cc1c(F)c(Br)c2[nH]ncc2c1-c1ccn2nc(NC(=O)[C@@H]3C[C@@H]3F)cc2c1 [Example 487, (1S,2S)-N-(5-(7-bromo-6-fluoro-5-methyl-1H-indazol-4-yl)pyrazolo[1,5-a]pyridin-2-yl)-2-fluorocyclopropane-1-carboxamide]
N#Cc1c(F)c(Cl)c(-c2ccc3nc(NC(=O)[C@@H]4C[C@@H]4F)cn3c2)c2cn[nH]c12 [Example 351, (1S,2S)-N-(6-(5-chloro-7-cyano-6-fluoro-1H-indazol-4-yl)imidazo[1,2-a]pyridin-2-yl)-2-fluorocyclopropane-1-carboxamide]
O=C(Nc1cc2cc(-c3c(Cl)c(F)c(N4CCCC4)c4[nH]ncc34)ccn2n1)[C@@H]1C[C@@H]1F [Example 499, (1S,2S)-N-(5-(5-chloro-6-fluoro-7-(pyrrolidin-1-yl)-1H-indazol-4-yl)pyrazolo[1,5-a]pyridin-2-yl)-2-fluorocyclopropane-1-carboxamide]
CC(Nc1c(F)c(Cl)c(-c2ccn3nc(NC(=O)[C@@H]4C[C@@H]4F)cc3c2)c2cn[nH]c12)C(F)F (stereo partly drawn) [Example 657, (1S,2S)-N-(5-(5-chloro-7-((1,1-difluoropropan-2-yl)amino)-6-fluoro-1H-indazol-4-yl)pyrazolo[1,5-a]pyridin-2-yl)-2-fluorocyclopropane-1-carboxamide]
CCOc1c(F)c(Cl)c(-c2ccc3nc(NC(=O)[C@@H]4C[C@@H]4F)cn3c2)c2cn[nH]c12 [Example 275, (1S,2S)-N-(6-(5-chloro-7-ethoxy-6-fluoro-1H-indazol-4-yl)imidazo[1,2-a]pyridin-2-yl)-2-fluorocyclopropane-1-carboxamide]
CC(NC(=O)C(F)(F)F)c1c(F)c(Cl)c(-c2ccn3nc(NC(=O)[C@@H]4C[C@@H]4F)cc3c2)c2cn[nH]c12 (stereo partly drawn) [Example 662, (1S,2S)-N-(5-(5-chloro-6-fluoro-7-(1-(2,2,2-trifluoroacetamido)ethyl)-1H-indazol-4-yl)pyrazolo[1,5-a]pyridin-2-yl)-2-fluorocyclopropane-1-carboxamide]
O=C(Nc1cn2cc(-c3c(Cl)c(F)c(N4CCCC4)c4[nH]ncc34)ccc2n1)[C@@H]1C[C@@H]1F [Example 282, (1S,2S)-N-(6-(5-chloro-6-fluoro-7-(pyrrolidin-1-yl)-1H-indazol-4-yl)imidazo[1,2-a]pyridin-2-yl)-2-fluorocyclopropane-1-carboxamide]
Cc1c(F)c(C)c2[nH]ncc2c1-c1ccn2nc(NC(=O)[C@@H]3C[C@@H]3F)cc2c1 [Example 477, (1S,2S)-2-fluoro-N-(5-(6-fluoro-5,7-dimethyl-1H-indazol-4-yl)pyrazolo[1,5-a]pyridin-2-yl)cyclopropane-1-carboxamide]
CN(CCN)c1c(F)c(Cl)c(-c2ccc3nc(NC(=O)[C@@H]4C[C@@H]4F)sc3c2)c2cn[nH]c12 [Example 82, (1S,2S)-N-(6-(7-((2-aminoethyl)(methyl)amino)-5-chloro-6-fluoro-1H-indazol-4-yl)benzo[d]thiazol-2-yl)-2-fluorocyclopropane-1-carboxamide]
O=C(Nc1cc2cc(-c3c(Cl)c(F)c(C(F)F)c4[nH]ncc34)ccn2n1)[C@@H]1C[C@@H]1F [Example 581, (1S,2S)-N-(5-(5-chloro-7-(difluoromethyl)-6-fluoro-1H-indazol-4-yl)pyrazolo[1,5-a]pyridin-2-yl)-2-fluorocyclopropane-1-carboxamide]

pIC50, 6.00 to 6.30:
CP(C)(=O)c1c(F)c(Cl)c(-c2ccn3nc(NC(=O)[C@@H]4C[C@@H]4F)cc3c2)c2cn[nH]c12 [Example 478, (1S,2S)-N-(5-(5-chloro-7-(dimethylphosphoryl)-6-fluoro-1H-indazol-4-yl)pyrazolo[1,5-a]pyridin-2-yl)-2-fluorocyclopropane-1-carboxamide]
